The nature of data set [1]: Neurotoxicity activity in ip dosed mouse assessed as induction of motor impairment by rotarod test. The data set is classed as toxicity, organism-based. To be noted: in vivo. (In general: In the rotarod test animals must keep their balance on a rotating rod.)
The nature of data set [2]: Protection index, ratio of TD50 for neurotoxicity in ip dosed mouse to ED50 for anticonvulsant activity in ip dosed mouse by maximal electroshock seizure test. The data set is classed as toxicity, organism-based. The settings on record: in vivo, read-out: PI.
The subject of data set [3] is Mus musculus. Briefly: Anticonvulsant activity in ip dosed mouse assessed as protection against tonic-clonic seizures by maximal electroshock seizure test. The format is functional.
Data set [4] is described as follows: Protection index, ratio of TD50 for neurotoxicity in ip dosed mouse to ED50 for anticonvulsant activity in ip dosed mouse by subcutaneous pentylenetetrazole test. The data set is classed as toxicity, organism-based. The settings on record: in vivo, read-out: PI.
Data set [5] has as its system Mus musculus. Briefly: Anticonvulsant activity in ip dosed mouse assessed as protection against ScPTZ-induced epilepsy by subcutaneous pentylenetetrazole test. The format is functional.

As for `O=C1CC(C(c2ccccc2)c2ccccc2)C(=O)N1CN1CCN(c2cccc(C(F)(F)F)c2)CC1` (stereo not given), the TD50 (in general, the dose at which the toxic effect under study appears in half of the subjects) in data set [1] is more than 500 mg/kg. The selectivity ratio is more than 4.95 in data set [2] and more than 6.84 in data set [4]. Moreover, the median effective dose (ED50) – broadly, the midpoint of the dose-response relation – with Mus musculus [3] was 101 mg/kg; in the data set on Mus musculus [5], 73 mg/kg.

The values are drawn from ChEMBL document CHEMBL4715709, “Synthesis and evaluation of anticonvulsant properties of new N-Mannich bases derived from 3-(1-phenylethyl)- and 3-benzyl-pyrrolidine-2,5-dione” (Bioorg Med Chem Lett, 2016).
